Reference: ChEMBL document CHEMBL4804286, “3-amino-4-(4-(4 (dimethylcarbamoyl) phenyl)-1,4-diazepan-1-yl) thieno [2,3-b] pyridine-2-carboxamide for use in cancer therapy and formulations comprising the same” (2020)
Values joined by “and” are separate entries in the source; they are usually repeats but may differ in a detail not shown here. Equal entries are not always repeated.

How the values were obtained:
Design in all cases: scale not given: the % may be the effect or the level left
[1] = test system: Tyrosine-protein kinase ABL1 (Homo sapiens), P00519 [UNDEFINED MUTATION]; assay: Inhibition of phosphorylated human ABL1 […] mutant assessed as percent of control at 2000 nM by KINOMEscan assay relative to control
[2] = test system: Tyrosine-protein kinase ABL1 (Homo sapiens), P00519 [Q252H]; assay: Inhibition of phosphorylated human ABL1 Q252H mutant assessed as percent of control at 2000 nM by KINOMEscan assay relative to control
[3] = target: Activin receptor type-1B (Homo sapiens) (UniProt P36896); assay: Inhibition of human ACVR1B assessed as percent of control at 2000 nM by KINOMEscan assay relative to control
[4] = target: Aurora kinase A (Homo sapiens) (UniProt O14965); assay: Inhibition of human AURKA assessed as percent of control at 2000 nM by KINOMEscan assay relative to control
[5] = target: Serine/threonine-protein kinase BRSK2 (Homo sapiens) (UniProt Q8IWQ3); assay: Inhibition of human BRSK2 assessed as percent of control at 2000 nM by KINOMEscan assay relative to control
[6] = target: Calcium/calmodulin-dependent protein kinase type 1 (Homo sapiens) (UniProt Q14012); assay: Inhibition of human CAMK1 assessed as percent of control at 2000 nM by KINOMEscan assay relative to control
[7] = target: Cyclin-dependent kinase 13 (Homo sapiens) (UniProt Q14004); assay: Inhibition of human CDC2L5 assessed as percent of control at 2000 nM by KINOMEscan assay relative to control
[8] = target: Tyrosine-protein kinase CSK (Homo sapiens) (UniProt P41240); assay: Inhibition of human CSK assessed as percent of control at 2000 nM by KINOMEscan assay relative to control
[9] = target: Death-associated protein kinase 1 (Homo sapiens) (UniProt P53355); assay: Inhibition of human DAPK1 assessed as percent of control at 2000 nM by KINOMEscan assay relative to control
[10] = target: Mitogen-activated protein kinase 6 (Homo sapiens) (UniProt Q16659); assay: Inhibition of human ERK3 assessed as percent of control at 2000 nM by KINOMEscan assay relative to control
[11] = target: Glycogen synthase kinase-3 beta (Homo sapiens) (UniProt P49841); assay: Inhibition of human GSK3B assessed as percent of control at 2000 nM by KINOMEscan assay relative to control
[12] = target: Mitogen-activated protein kinase kinase kinase kinase 1 (Homo sapiens) (UniProt Q92918); assay: Inhibition of human HPK1 assessed as percent of control at 2000 nM by KINOMEscan assay relative to control
[13] = target: Inhibitor of nuclear factor kappa-B kinase subunit alpha (Homo sapiens) (UniProt O15111); assay: Inhibition of human IKK-alpha assessed as percent of control at 2000 nM by KINOMEscan assay relative to control
[14] = target: Inhibitor of nuclear factor kappa-B kinase subunit epsilon (Homo sapiens) (UniProt Q14164); assay: Inhibition of human IKK-epsilon assessed as percent of control at 2000 nM by KINOMEscan assay relative to control
[15] = target: Mitogen-activated protein kinase kinase kinase 15 (Homo sapiens) (UniProt Q6ZN16); assay: Inhibition of human MAP3K15 assessed as percent of control at 2000 nM by KINOMEscan assay relative to control
[16] = target: Dual specificity mitogen-activated protein kinase kinase 4 (Homo sapiens) (UniProt P45985); assay: Inhibition of human MEK4 assessed as percent of control at 2000 nM by KINOMEscan assay relative to control
[17] = target: Muscle, skeletal receptor tyrosine-protein kinase (Homo sapiens) (UniProt O15146); assay: Inhibition of human MUSK assessed as percent of control at 2000 nM by KINOMEscan assay relative to control
[18] = target: Myosin light chain kinase 2, skeletal/cardiac muscle (Homo sapiens) (UniProt Q9H1R3); assay: Inhibition of human MYLK2 assessed as percent of control at 2000 nM by KINOMEscan assay relative to control
[19] = target: Serine/threonine-protein kinase PAK 5 (Homo sapiens) (UniProt Q9P286); assay: Inhibition of human PAK7 assessed as percent of control at 2000 nM by KINOMEscan assay relative to control
[20] = target: Phosphatidylinositol 4,5-bisphosphate 3-kinase catalytic subunit alpha isoform (Homo sapiens) (UniProt P42336); assay: Inhibition of human PIK3CA assessed as percent of control at 2000 nM by KINOMEscan assay relative to control
[21] = test system: Phosphatidylinositol 4,5-bisphosphate 3-kinase catalytic subunit alpha isoform (Homo sapiens), P42336 [E542K]; assay: Inhibition of human PIK3CA E542K mutant assessed as percent of control at 2000 nM by KINOMEscan assay relative to control
[22] = test system: Phosphatidylinositol 4,5-bisphosphate 3-kinase catalytic subunit alpha isoform (Homo sapiens), P42336 [H1047L]; assay: Inhibition of human PIK3CA H1047L mutant assessed as percent of control at 2000 nM by KINOMEscan assay relative to control
[23] = target: Phosphatidylinositol 5-phosphate 4-kinase type-2 gamma (Homo sapiens) (UniProt Q8TBX8); assay: Inhibition of human PIP5K2C assessed as percent of control at 2000 nM by KINOMEscan assay relative to control
[24] = target: Serine/threonine-protein kinase D3 (Homo sapiens) (UniProt O94806); assay: Inhibition of human PRKD3 assessed as percent of control at 2000 nM by KINOMEscan assay relative to control
[25] = target: Interferon-induced, double-stranded RNA-activated protein kinase (Homo sapiens) (UniProt P19525); assay: Inhibition of human PRKR assessed as percent of control at 2000 nM by KINOMEscan assay relative to control
[26] = target: Ribosomal protein S6 kinase alpha-6 (Homo sapiens) (UniProt Q9UK32); assay: Inhibition of human C-terminal RSK4 kinase domain 2 assessed as percent of control at 2000 nM by KINOMEscan assay relative to control
[27] = target: BDNF/NT-3 growth factors receptor (Homo sapiens) (UniProt Q16620); assay: Inhibition of human TRKB assessed as percent of control at 2000 nM by KINOMEscan assay relative to control
[28] = target: Testis-specific serine/threonine-protein kinase 3 (Homo sapiens) (UniProt Q96PN8); assay: Inhibition of human TSSK3 assessed as percent of control at 2000 nM by KINOMEscan assay relative to control
[29] = target: Serine/threonine-protein kinase 25 (Homo sapiens) (UniProt O00506); assay: Inhibition of human YSK1 assessed as percent of control at 2000 nM by KINOMEscan assay relative to control
[30] = target: Mitogen-activated protein kinase kinase kinase 19 (Homo sapiens) (UniProt Q56UN5); assay: Inhibition of human YSK4 assessed as percent of control at 2000 nM by KINOMEscan assay relative to control
Sequence of Mitogen-activated protein kinase kinase kinase 19 (Homo sapiens) (Q56UN5 whole entry): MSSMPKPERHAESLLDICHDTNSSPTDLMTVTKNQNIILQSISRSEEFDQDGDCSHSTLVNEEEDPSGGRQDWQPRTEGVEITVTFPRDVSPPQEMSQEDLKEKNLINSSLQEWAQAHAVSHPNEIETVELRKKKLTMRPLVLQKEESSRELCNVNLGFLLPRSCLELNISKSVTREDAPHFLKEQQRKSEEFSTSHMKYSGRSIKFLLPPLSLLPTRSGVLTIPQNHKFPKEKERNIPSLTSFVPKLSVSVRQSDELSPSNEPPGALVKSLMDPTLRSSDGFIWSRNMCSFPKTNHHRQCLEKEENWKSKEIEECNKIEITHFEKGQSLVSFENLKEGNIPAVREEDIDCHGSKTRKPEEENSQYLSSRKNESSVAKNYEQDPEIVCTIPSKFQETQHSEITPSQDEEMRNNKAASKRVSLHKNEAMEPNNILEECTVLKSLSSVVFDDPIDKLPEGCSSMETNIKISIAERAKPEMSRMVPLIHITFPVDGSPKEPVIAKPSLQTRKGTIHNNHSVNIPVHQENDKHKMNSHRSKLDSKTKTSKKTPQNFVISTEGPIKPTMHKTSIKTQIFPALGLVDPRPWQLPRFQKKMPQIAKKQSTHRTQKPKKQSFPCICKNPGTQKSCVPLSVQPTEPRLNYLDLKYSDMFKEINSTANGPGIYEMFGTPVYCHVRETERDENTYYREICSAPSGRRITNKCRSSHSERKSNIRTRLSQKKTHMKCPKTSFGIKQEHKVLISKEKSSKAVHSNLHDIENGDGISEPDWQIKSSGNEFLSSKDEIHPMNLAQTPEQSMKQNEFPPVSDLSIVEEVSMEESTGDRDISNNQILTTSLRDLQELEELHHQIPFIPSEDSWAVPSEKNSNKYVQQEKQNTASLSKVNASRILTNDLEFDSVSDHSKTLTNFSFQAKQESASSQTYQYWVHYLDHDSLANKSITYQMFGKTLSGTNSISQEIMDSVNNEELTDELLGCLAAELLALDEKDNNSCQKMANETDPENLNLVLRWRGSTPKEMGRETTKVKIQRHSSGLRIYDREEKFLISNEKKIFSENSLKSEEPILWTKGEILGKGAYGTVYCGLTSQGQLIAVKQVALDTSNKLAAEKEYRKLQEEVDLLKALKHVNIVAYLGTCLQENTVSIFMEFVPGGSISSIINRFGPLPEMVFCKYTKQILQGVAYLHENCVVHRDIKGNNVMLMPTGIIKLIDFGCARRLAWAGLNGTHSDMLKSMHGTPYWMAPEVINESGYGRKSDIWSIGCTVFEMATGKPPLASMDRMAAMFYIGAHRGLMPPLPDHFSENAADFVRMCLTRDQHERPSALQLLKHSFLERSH

Sequence of Mitogen-activated protein kinase kinase kinase kinase 1 (Homo sapiens) (Q92918 whole entry, looked up): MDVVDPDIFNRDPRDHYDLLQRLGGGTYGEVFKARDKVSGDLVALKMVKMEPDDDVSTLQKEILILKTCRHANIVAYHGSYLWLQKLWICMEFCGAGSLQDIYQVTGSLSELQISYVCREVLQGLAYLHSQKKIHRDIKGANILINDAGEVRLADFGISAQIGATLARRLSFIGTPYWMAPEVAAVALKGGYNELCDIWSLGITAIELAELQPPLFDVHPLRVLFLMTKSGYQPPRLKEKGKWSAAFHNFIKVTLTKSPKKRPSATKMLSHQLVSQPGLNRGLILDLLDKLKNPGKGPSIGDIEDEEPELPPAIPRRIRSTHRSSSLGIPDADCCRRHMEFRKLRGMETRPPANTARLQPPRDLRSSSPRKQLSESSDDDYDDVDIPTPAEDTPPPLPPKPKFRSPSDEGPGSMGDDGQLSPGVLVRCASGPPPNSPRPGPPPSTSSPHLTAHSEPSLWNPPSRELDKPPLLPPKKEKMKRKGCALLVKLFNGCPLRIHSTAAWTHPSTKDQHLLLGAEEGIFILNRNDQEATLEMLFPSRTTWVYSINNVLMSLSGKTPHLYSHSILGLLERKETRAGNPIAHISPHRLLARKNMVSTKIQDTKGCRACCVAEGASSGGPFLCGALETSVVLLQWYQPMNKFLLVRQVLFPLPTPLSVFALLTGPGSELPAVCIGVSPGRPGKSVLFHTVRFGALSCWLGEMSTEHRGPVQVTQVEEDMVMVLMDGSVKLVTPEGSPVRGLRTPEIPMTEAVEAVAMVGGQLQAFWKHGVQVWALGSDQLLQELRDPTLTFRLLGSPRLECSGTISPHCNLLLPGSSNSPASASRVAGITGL
Sequence of Serine/threonine-protein kinase 25 (Homo sapiens) (O00506 whole entry, looked up): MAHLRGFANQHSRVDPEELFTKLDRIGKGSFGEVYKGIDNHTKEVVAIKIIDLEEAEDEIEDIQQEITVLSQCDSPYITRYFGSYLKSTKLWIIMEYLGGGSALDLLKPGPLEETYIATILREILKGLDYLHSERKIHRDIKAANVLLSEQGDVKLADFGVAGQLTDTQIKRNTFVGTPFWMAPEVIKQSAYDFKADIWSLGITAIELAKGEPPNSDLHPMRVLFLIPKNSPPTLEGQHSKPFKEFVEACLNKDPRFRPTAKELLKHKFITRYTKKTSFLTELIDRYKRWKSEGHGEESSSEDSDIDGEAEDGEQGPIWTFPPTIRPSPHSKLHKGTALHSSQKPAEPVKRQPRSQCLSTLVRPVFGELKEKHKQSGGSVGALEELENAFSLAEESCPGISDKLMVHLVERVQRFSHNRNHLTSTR
Sequence of Inhibitor of nuclear factor kappa-B kinase subunit epsilon (Homo sapiens) (Q14164 whole entry): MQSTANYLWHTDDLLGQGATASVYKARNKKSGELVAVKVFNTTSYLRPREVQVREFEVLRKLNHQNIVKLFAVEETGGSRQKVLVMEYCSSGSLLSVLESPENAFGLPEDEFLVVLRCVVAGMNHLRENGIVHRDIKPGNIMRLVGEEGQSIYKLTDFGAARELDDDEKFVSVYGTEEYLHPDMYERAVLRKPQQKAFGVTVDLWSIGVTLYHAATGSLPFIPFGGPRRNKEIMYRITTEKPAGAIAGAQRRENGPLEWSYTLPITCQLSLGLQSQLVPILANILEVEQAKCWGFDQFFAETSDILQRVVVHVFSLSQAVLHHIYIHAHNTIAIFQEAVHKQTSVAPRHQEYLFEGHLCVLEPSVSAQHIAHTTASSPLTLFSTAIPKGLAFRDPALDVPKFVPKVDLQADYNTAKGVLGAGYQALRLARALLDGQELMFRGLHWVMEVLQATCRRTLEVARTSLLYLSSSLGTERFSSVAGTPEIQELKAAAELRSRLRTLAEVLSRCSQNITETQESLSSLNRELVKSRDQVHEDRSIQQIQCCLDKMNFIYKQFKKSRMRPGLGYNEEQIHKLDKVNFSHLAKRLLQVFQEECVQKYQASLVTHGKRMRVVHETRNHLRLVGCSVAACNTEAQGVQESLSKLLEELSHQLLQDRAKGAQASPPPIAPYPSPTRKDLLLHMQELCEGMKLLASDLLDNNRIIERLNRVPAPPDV
Sequence of Myosin light chain kinase 2, skeletal/cardiac muscle (Homo sapiens) (Q9H1R3 whole entry): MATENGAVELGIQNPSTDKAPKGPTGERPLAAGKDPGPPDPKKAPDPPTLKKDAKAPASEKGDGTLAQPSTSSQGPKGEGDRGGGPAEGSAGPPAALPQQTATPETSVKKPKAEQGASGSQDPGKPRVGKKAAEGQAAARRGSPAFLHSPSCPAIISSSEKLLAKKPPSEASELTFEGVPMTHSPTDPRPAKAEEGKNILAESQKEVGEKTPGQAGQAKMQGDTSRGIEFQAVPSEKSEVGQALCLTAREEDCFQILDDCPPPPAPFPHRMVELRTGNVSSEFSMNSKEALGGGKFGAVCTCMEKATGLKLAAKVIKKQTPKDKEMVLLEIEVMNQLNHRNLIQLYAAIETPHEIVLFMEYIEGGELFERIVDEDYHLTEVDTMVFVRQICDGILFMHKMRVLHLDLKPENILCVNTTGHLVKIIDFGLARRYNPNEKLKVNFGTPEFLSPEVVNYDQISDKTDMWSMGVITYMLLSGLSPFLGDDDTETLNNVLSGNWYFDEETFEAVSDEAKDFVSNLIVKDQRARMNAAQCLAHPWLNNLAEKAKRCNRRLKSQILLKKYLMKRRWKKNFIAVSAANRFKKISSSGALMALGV
Sequence of Phosphatidylinositol 5-phosphate 4-kinase type-2 gamma (Homo sapiens) (Q8TBX8 whole entry): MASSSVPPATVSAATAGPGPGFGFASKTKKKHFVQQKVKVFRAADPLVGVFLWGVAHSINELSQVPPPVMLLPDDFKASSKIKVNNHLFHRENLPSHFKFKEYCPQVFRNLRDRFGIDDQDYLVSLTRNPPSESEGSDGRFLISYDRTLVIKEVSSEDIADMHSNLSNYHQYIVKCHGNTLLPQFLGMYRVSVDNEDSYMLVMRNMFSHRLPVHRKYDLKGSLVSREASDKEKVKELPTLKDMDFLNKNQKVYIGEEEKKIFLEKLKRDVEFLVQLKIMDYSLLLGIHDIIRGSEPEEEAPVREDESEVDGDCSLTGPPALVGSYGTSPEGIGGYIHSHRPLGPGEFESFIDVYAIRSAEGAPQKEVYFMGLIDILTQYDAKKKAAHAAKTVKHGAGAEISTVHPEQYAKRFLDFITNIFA
Sequence of Inhibitor of nuclear factor kappa-B kinase subunit alpha (Homo sapiens) (O15111 whole entry): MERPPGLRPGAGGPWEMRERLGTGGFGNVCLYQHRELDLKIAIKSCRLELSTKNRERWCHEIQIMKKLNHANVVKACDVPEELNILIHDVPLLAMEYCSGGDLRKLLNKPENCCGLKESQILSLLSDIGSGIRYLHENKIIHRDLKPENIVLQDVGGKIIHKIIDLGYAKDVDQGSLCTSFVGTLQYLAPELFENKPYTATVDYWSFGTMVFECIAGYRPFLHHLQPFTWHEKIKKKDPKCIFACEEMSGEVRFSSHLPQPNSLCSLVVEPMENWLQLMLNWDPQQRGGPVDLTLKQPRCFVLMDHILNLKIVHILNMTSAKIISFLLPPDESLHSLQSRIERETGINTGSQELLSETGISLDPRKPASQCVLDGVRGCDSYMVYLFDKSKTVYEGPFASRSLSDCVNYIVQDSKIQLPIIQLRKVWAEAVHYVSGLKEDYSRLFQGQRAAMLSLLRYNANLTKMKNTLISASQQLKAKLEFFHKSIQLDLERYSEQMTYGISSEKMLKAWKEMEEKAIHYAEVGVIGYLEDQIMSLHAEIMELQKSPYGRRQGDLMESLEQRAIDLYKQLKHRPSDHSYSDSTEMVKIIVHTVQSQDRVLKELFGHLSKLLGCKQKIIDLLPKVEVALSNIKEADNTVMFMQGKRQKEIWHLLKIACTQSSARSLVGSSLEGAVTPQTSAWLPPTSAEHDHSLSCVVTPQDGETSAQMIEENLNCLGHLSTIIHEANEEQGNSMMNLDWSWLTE

CN(C)C(=O)c1ccc(N2CCCN(c3ccnc4sc(C(N)=O)c(N)c34)CC2)cc1
Activity [1]: 94% and 77% | Activity [2]: 94% and 83% | Activity [3]: 100% and 99% | Activity [4]: 98% and 99% | Activity [5]: 100% | Activity [6]: 83% and 95% | Activity [7]: 71% and 80% | Activity [8]: 86% and 92% | Activity [9]: 92% and 88% | Activity [10]: 88% and 94% | Activity [11]: 79% and 77% | Activity [12]: 98% and 100% | Activity [13]: 77% and 90% | Activity [14]: 100% | Activity [15]: 97% and 92% | Activity [16]: 69% and 74% | Activity [17]: 94% and 82% | Activity [18]: 100% | Activity [19]: 100% and 80% | Activity [20]: 100% and 79% | Activity [21]: 92% and 74% | Activity [22]: 94% and 80% | Activity [23]: 80% and 64% | Activity [24]: 94% and 100% | Activity [25]: 100% | Activity [26]: 94% and 79% | Activity [27]: 88% and 78% | Activity [28]: 93% and 100% | Activity [29]: 76% and 98% | Activity [30]: 74% and 53%
